Assay results reported in patent US7378375B1, “Substituted pyridine herbicides” (Syngenta Crop Protection, Inc., priority 2000, dated 2008).

Tests used:
[1] = system: Monocotyledonous and dicotyledonous test plants; assay: Post-emergence herbicidal action, greenhouse pot test, sprayed at the 2- to 3-leaf stage, 9-level rating after 2 to 3 weeks; format: in vivo; parameters: key: 9-level scale: 1 = complete damage, 9 = no effect; conditions: 250 g/ha, rated after 2 to 3 weeks, 9-level scale
Description: Post-Emergence Herbicidal Action
Monocotyledonous and dicotyledonous test plants are grown in standard soil in pots. At the 2- to 3-leaf stage of the test plants, the test substances are sprayed at optimum dosage (500 l of water/ha) as an aqueous suspension (prepared from a wettable powder (example F3, b) according to WO 97/34485) or emulsion (prepared from an emulsion concentrate (example F1, c) according to WO 97/34485). The test plants are then grown further under optimum conditions in a greenhouse.
After a test period of 2 to 3 weeks, the test is evaluated using a 9-level scale of rating (1=complete damage, 9=no effect). Ratings of 1 to 4 (in particular 1 to 3) mean good to very good herbicidal action.

[2] = system: Monocotyledonous and dicotyledonous test plants; assay: Herbicidal action before emergence of the plants (pre-emergence action), greenhouse pot test, 9-level rating after 4 weeks; format: in vivo; parameters: key: 9-level scale: 1 = complete damage, 9 = no effect; conditions: 250 g/ha, rated after 4 weeks, 9-level scale
Description: Herbicidal Action Before Emergence of the Plants (Pre-Emergence Action)
Monocotyledonous and dicotyledonous test plants are sown in standard soil in pots. Immediately after sowing, the test substances are sprayed on at an optimum dosage (500 l of water/ha) as an aqueous suspension (prepared from a wettable powder (example F3, b) according to WO 97/34485) or emulsion (prepared from an emulsion concentrate (example F1, c) according to WO 97/34485). The test plants are then grown under optimum conditions in a greenhouse.
After a test period of 4 weeks, the test is evaluated using a 9-level scale of ratings (1=complete damage, 9=no effect). Ratings of 1 to 4 (in particular 1 to 3) mean good to very good herbicidal action.

## COc1ccccc1OCc1nc(C(F)(F)F)ccc1C(=O)C1=C(O)C2CCC(C2)C1=O (centres unmarked) [A33-B52]
[1]
  Post-emergence action rating, Abutilon: 2
  Post-emergence action rating, Amaranth: 2
  Post-emergence action rating, Chenop.: 1
  Post-emergence action rating, Digitaria: 2
  Post-emergence action rating, Echino.: 2
  Post-emergence action rating, Ipopur.: 2
  Post-emergence action rating, Panicum: 2
  Post-emergence action rating, Xanth.: 3

## CSCCOCc1nc(C(F)(F)F)ccc1C(=O)C1=C(O)C2CCC(C2)C1=O (centres unmarked) [A817-B52]
[1]
  Post-emergence action rating, Abutilon: 2
  Post-emergence action rating, Amaranth: 2
  Post-emergence action rating, Chenop.: 1
  Post-emergence action rating, Digitaria: 2
  Post-emergence action rating, Echino.: 2
  Post-emergence action rating, Ipopur.: 2
  Post-emergence action rating, Panicum: 1
  Post-emergence action rating, Xanth.: 2

## C[S+]([O-])CCOCc1nc(C(F)(F)F)ccc1C(=O)C1=C(O)C2CCC(C2)C1=O (centres unmarked) [A818-B52]
[1]
  Post-emergence action rating, Abutilon: 2
  Post-emergence action rating, Amaranth: 2
  Post-emergence action rating, Chenop.: 1
  Post-emergence action rating, Digitaria: 2
  Post-emergence action rating, Echino.: 3
  Post-emergence action rating, Ipopur.: 2
  Post-emergence action rating, Panicum: 2
  Post-emergence action rating, Xanth.: 2

## CSc1nnc(SCc2nc(C(F)(F)F)ccc2C(=O)C2=C(O)CCCC2=O)s1 [A829-B1]
[1]
  Post-emergence action rating, Abutilon: 7
  Post-emergence action rating, Amaranth: 2
  Post-emergence action rating, Chenop.: 2
  Post-emergence action rating, Digitaria: 9
  Post-emergence action rating, Echino.: 7
  Post-emergence action rating, Ipopur.: 6
  Post-emergence action rating, Panicum: 7
  Post-emergence action rating, Xanth.: 4

## CSc1nnc(SCc2nc(C(F)(F)F)ccc2C(=O)C2=C(O)C3CCC(C3)C2=O)s1 (centres unmarked) [A829-B52]
[1]
  Post-emergence action rating, Abutilon: 3
  Post-emergence action rating, Amaranth: 2
  Post-emergence action rating, Chenop.: 2
  Post-emergence action rating, Digitaria: 6
  Post-emergence action rating, Echino.: 4
  Post-emergence action rating, Ipopur.: 4
  Post-emergence action rating, Panicum: 2
  Post-emergence action rating, Xanth.: 6

## Cn1ncc(C(=O)c2ccc(C(F)(F)F)nc2COCC(F)(F)F)c1O [A834-C5]
[2]
  Pre-emergence action rating, Abutilon: 1
  Pre-emergence action rating, Amaranthus: 2
  Pre-emergence action rating, Digitaria: 3
  Pre-emergence action rating, Echino.: 1
  Pre-emergence action rating, Panicum: 1

## COCC(Br)COCc1nc(C(F)(F)F)ccc1C(=O)C1=C(O)C2CCC(C2)C1=O (centres unmarked) [A853-B52]
[2]
  Pre-emergence action rating, Abutilon: 1
  Pre-emergence action rating, Amaranthus: 1
  Pre-emergence action rating, Digitaria: 1
  Pre-emergence action rating, Echino.: 2
  Pre-emergence action rating, Panicum: 1
[2]; Chenop.
  Pre-emergence action rating, Chenop.: 2

## O=C(C1=C(O)C2CCC(C2)C1=O)c1ccc(C(F)(F)F)nc1COCc1cccs1 (centres unmarked) [A854-B52]
[1]
  Post-emergence action rating, Abutilon: 2
  Post-emergence action rating, Amaranth: 1
  Post-emergence action rating, Chenop.: 1
  Post-emergence action rating, Digitaria: 2
  Post-emergence action rating, Echino.: 2
  Post-emergence action rating, Ipopur.: 2
  Post-emergence action rating, Panicum: 1
  Post-emergence action rating, Xanth.: 2

## O=C(C1=C(O)C2CCC(C2)C1=O)c1ccc(C(F)(F)F)nc1COCCOCc1ccccc1 (centres unmarked) [A855-B52]
[1]
  Post-emergence action rating, Abutilon: 2
  Post-emergence action rating, Amaranth: 2
  Post-emergence action rating, Chenop.: 1
  Post-emergence action rating, Digitaria: 2
  Post-emergence action rating, Echino.: 2
  Post-emergence action rating, Ipopur.: 2
  Post-emergence action rating, Panicum: 2
  Post-emergence action rating, Xanth.: 2

## O=C(C1=C(O)C2CCC(C2)C1=O)c1ccc(C(F)(F)F)nc1COCCO (centres unmarked) [A856-B52]
[1]
  Post-emergence action rating, Abutilon: 2
  Post-emergence action rating, Amaranth: 2
  Post-emergence action rating, Chenop.: 1
  Post-emergence action rating, Digitaria: 2
  Post-emergence action rating, Echino.: 2
  Post-emergence action rating, Ipopur.: 1
  Post-emergence action rating, Panicum: 2
  Post-emergence action rating, Xanth.: 2

## CC(C)(C)C(=O)OC1=C(C(=O)c2ccc(C(F)(F)F)nc2COCCO)C(=O)C2CCC1C2 (centres unmarked) [A856-B112]
[1]
  Post-emergence action rating, Abutilon: 2
  Post-emergence action rating, Amaranth: 3
  Post-emergence action rating, Chenop.: 1
  Post-emergence action rating, Digitaria: 3
  Post-emergence action rating, Echino.: 5
  Post-emergence action rating, Ipopur.: 3
  Post-emergence action rating, Panicum: 3
  Post-emergence action rating, Xanth.: 3

## O=C(C1=C(O)C2CCC(C2)C1=O)c1ccc(C(F)(F)F)nc1COCCOCOCc1ccccc1 (centres unmarked) [A857-B52]
[1]
  Post-emergence action rating, Abutilon: 2
  Post-emergence action rating, Amaranth: 2
  Post-emergence action rating, Chenop.: 1
  Post-emergence action rating, Digitaria: 2
  Post-emergence action rating, Echino.: 2
  Post-emergence action rating, Ipopur.: 2
  Post-emergence action rating, Panicum: 2
  Post-emergence action rating, Xanth.: 2

## COCCOCCOCCOCc1nc(C(F)(F)F)ccc1C(=O)C1=C(O)C2CCC(C2)C1=O (centres unmarked) [A858-B52]
[1]
  Post-emergence action rating, Abutilon: 2
  Post-emergence action rating, Amaranth: 1
  Post-emergence action rating, Chenop.: 2
  Post-emergence action rating, Digitaria: 2
  Post-emergence action rating, Echino.: 2
  Post-emergence action rating, Ipopur.: 2
  Post-emergence action rating, Panicum: 2
  Post-emergence action rating, Xanth.: 2

## CCOC(C)OCCOCc1nc(C(F)(F)F)ccc1C(=O)C1=C(O)C2CCC(C2)C1=O (centres unmarked) [A859-B52]
[1]
  Post-emergence action rating, Abutilon: 2
  Post-emergence action rating, Amaranth: 2
  Post-emergence action rating, Chenop.: 1
  Post-emergence action rating, Digitaria: 2
  Post-emergence action rating, Echino.: 2
  Post-emergence action rating, Ipopur.: 2
  Post-emergence action rating, Panicum: 1
  Post-emergence action rating, Xanth.: 2

## CCCCCCCC(=O)OCCOCc1nc(C(F)(F)F)ccc1C(=O)C1=C(O)C2CCC(C2)C1=O (centres unmarked) [A860-B52]
[1]
  Post-emergence action rating, Abutilon: 2
  Post-emergence action rating, Amaranth: 2
  Post-emergence action rating, Chenop.: 1
  Post-emergence action rating, Digitaria: 1
  Post-emergence action rating, Echino.: 2
  Post-emergence action rating, Ipopur.: 2
  Post-emergence action rating, Panicum: 2
  Post-emergence action rating, Xanth.: 2

## CC(=O)OCCOCc1nc(C(F)(F)F)ccc1C(=O)C1=C(O)C2CCC(C2)C1=O (centres unmarked) [A861-B52]
[1]
  Post-emergence action rating, Abutilon: 3
  Post-emergence action rating, Amaranth: 2
  Post-emergence action rating, Chenop.: 1
  Post-emergence action rating, Digitaria: 3
  Post-emergence action rating, Echino.: 5
  Post-emergence action rating, Ipopur.: 2
  Post-emergence action rating, Panicum: 2
  Post-emergence action rating, Xanth.: 2

## CS(=O)(=O)OCCOCc1nc(C(F)(F)F)ccc1C(=O)C1=C(O)C2CCC(C2)C1=O (centres unmarked) [A862-B52]
[1]
  Post-emergence action rating, Abutilon: 3
  Post-emergence action rating, Amaranth: 2
  Post-emergence action rating, Chenop.: 1
  Post-emergence action rating, Digitaria: 2
  Post-emergence action rating, Echino.: 3
  Post-emergence action rating, Ipopur.: 5
  Post-emergence action rating, Panicum: 2
  Post-emergence action rating, Xanth.: 2

## O=C(C1=C(O)C2CCC(C2)C1=O)c1ccc(C(F)(F)F)nc1COCCCOCc1ccccc1 (centres unmarked) [A863-B52]
[1]
  Post-emergence action rating, Abutilon: 2
  Post-emergence action rating, Amaranth: 2
  Post-emergence action rating, Chenop.: 1
  Post-emergence action rating, Digitaria: 2
  Post-emergence action rating, Echino.: 3
  Post-emergence action rating, Ipopur.: 3
  Post-emergence action rating, Panicum: 2
  Post-emergence action rating, Xanth.: 2

## CN(Cc1nc(C(F)(F)F)ccc1C(=O)C1=C(O)C2CCC(C2)C1=O)S(C)(=O)=O (centres unmarked) [A864-B52]
[1]
  Post-emergence action rating, Abutilon: 2
  Post-emergence action rating, Amaranth: 2
  Post-emergence action rating, Chenop.: 1
  Post-emergence action rating, Digitaria: 2
  Post-emergence action rating, Echino.: 2
  Post-emergence action rating, Ipopur.: 2
  Post-emergence action rating, Panicum: 2
  Post-emergence action rating, Xanth.: 2

## CN(Cc1nc(C(F)(F)F)ccc1C(=O)c1cnn(C)c1O)S(C)(=O)=O [A864-C5]
[1]
  Post-emergence action rating, Abutilon: 2
  Post-emergence action rating, Amaranth: 1
  Post-emergence action rating, Chenop.: 1
  Post-emergence action rating, Digitaria: 2
  Post-emergence action rating, Echino.: 2
  Post-emergence action rating, Ipopur.: 2
  Post-emergence action rating, Panicum: 1
  Post-emergence action rating, Xanth.: 2
